Among the data in US20230278996A1, “YKL-40 INHIBITORS AND THEIR THERAPEUTIC APPLICATIONS” (Molecure S.A., priority 2022, published 2023) are IC50 values, retold here.

The structures appear in SMILES notation. Some results are limits rather than exact numbers.

In this assay the target is YKL-40 (Homo sapiens (Human), UniProt P36222). The experiment in a line: YKL-40:4 assay, competitive chitin binding site AlphaScreen. As to conditions: competition with biotinylated compound 4 (20 nM), YKL-40-histag 2.5 nM.
Chain of YKL-40 (P36222 22-383): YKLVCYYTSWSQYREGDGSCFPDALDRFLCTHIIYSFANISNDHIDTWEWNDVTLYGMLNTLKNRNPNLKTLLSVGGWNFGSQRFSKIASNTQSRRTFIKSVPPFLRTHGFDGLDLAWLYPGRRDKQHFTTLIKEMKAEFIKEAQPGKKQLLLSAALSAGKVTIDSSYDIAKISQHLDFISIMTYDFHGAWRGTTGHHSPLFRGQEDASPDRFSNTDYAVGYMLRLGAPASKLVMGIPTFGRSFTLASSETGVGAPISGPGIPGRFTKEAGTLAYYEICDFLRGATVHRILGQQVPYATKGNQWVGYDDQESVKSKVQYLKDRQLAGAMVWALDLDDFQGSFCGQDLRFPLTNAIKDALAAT
`C[C@H](O)[C@H]1CN(C2CCN(c3ccccn3)CC2)[C@@H](Cc2ccc(Cl)cc2)CN1C` [compound 105, (S)-1-((2R,5S)-5-(4-chlorobenzyl)-1-methyl-4-(1-(pyridin-2-yl)piperidin-4-yl)piperazin-2-yl)ethan-1-ol 2,2,2-trifluoroacetate] displayed an IC50 of less than 100 nM.
The figure for `CO[C@H](C)CN1C[C@H](Cc2ccc(Cl)cc2)N(C2CCN(c3ccccn3)CC2)C[C@@H]1C` [compound 107, (2S,5S)-2-(4-chlorobenzyl)-4-((R)-2-methoxypropyl)-5-methyl-1-(1-(pyridin-2-yl)piperidin-4-yl)piperazine 2,2,2-trifluoroacetate] is 100 to 1000 nM.
Compound `CO[C@@H]1CCN(C2CCN(c3ccccn3)CC2)[C@@H](Cc2ccc(Cl)cc2)C1` [compound 108, (2S,4R)-2-(4-chlorobenzyl)-4-methoxy-1′-(pyridin-2-yl)-1,4′-bipiperidine 2,2,2-trifluoroacetate] had an IC50 of less than 100 nM.
Turning to `CO[C@H]1CCN(C2CCN(c3ccccn3)CC2)[C@@H](Cc2ccc(Cl)cc2)C1` [compound 109, (2S,4S)-2-(4-chlorobenzyl)-4-methoxy-1′-(pyridin-2-yl)-1,4′-bipiperidine 2,2,2-trifluoroacetate], the IC50 was in the range of 100 to 1000 nM.
In turn, `C[C@@H](O)[C@H]1CN(C2CCN(c3ccccn3)CC2)[C@@H](Cc2ccc(Cl)cc2)CN1C` [compound 110, (R)-1-((2R,5S)-5-(4-chlorobenzyl)-1-methyl-4-(1-(pyridin-2-yl)piperidin-4-yl)piperazin-2-yl)ethan-1-ol] gave an IC50 of less than 100 nM.
In turn, `C[C@H]1CN(C2CCN(c3cc(Br)ccn3)CC2)[C@@H](Cc2ccc(Cl)cc2)CO1` [compound 113, (2S,5S)-4-(1-(4-bromopyridin-2-yl)piperidin-4-yl)-5-(4-chlorobenzyl)-2-methylmorpholine 2,2,2-trifluoroacetate] yielded an IC50 of 100 to 1000 nM.
`C[C@H]1CN(C2CCN(c3ncccc3C(N)=O)CC2)[C@@H](Cc2ccc(Cl)cc2)CO1` [compound 114, 2-(4-((2S,5S)-5-(4-chlorobenzyl)-2-methylmorpholino)piperidin-1-yl)nicotinamide 2,2,2-trifluoroacetate] showed an IC50 greater than 100000 nM.
As for `C[C@H]1CN(C2CCN(c3cc(Cl)ccc3C#N)CC2)[C@@H](Cc2ccc(Cl)cc2)CO1` [compound 115, 4-chloro-2-(4-((2S,5S)-5-(4-chlorobenzyl)-2-methylmorpholino)piperidin-1-yl)benzonitrile 2,2,2-trifluoroacetate], the IC50 was greater than 100000 nM.
The figure for `C[C@H]1CN(C2CCN(c3nccc4ccccc34)CC2)[C@@H](Cc2ccc(Cl)cc2)CO1` [compound 116, (2S,5S)-5-(4-chlorobenzyl)-4-(1-(isoquinolin-1-yl)piperidin-4-yl)-2-methylmorpholine 2,2,2-trifluoroacetate] is greater than 100000 nM.
Take `COC(=O)c1cccnc1N1CCC(N2C[C@H](C)OC[C@@H]2Cc2ccc(Cl)cc2)CC1` [compound 117, methyl 2-(4-((2S,5S)-5-(4-chlorobenzyl)-2-methylmorpholino)piperidin-1-yl)nicotinate 2,2,2-trifluoroacetate]: the IC50 is greater than 100000 nM.
For `C[C@H]1CN(C2CCN(c3c(F)cccc3C#N)CC2)[C@@H](Cc2ccc(Cl)cc2)CO1` [compound 118, 2-(4-((2S,5S)-5-(4-chlorobenzyl)-2-methylmorpholino)piperidin-1-yl)-3-fluorobenzonitrile 2,2,2-trifluoroacetate], the IC50 was greater than 100000 nM.
Consider `C[C@H]1CN(C2CCN(c3ccccc3C#N)CC2)[C@@H](Cc2ccc(Cl)cc2)CO1` [compound 119, 2-(4-((2S,5S)-5-(4-chlorobenzyl)-2-methylmorpholino)piperidin-1-yl)benzonitrile 2,2,2-trifluoroacetate], for which the IC50 is greater than 100000 nM.
The compound `C[C@H]1CN(C2CCN(c3ncccc3CO)CC2)[C@@H](Cc2ccc(Cl)cc2)CO1` [compound 120, (2-(4-((2S,5S)-5-(4-chlorobenzyl)-2-methylmorpholino)piperidin-1-yl)pyridin-3-yl)methanol 2,2,2-trifluoroacetate] showed an IC50 greater than 100000 nM.
